Test results as given in patent US6417384B1, “Radioiodinated phospholipid ether analogs and methods of using the same” (The Regents of the University of Michigan, priority 1999, dated 2002).

What was measured:
Assay type in all cases: in vivo, rat
[1] = test system: rats bearing Walker-256 tumor; test: Biodistribution studies with Walker-256 carcinosarcoma; details: i.v., Walker-256 tumor-bearing rats, mean ± SEM
Description: The three radiolabelled compounds illustrated in FIG. 5, including the improved C-18 analog 18-(p-iodophenyl)octadecyl phosphocholine (Compound XVI) described in Example 2, were prepared and administered to two sets of female Sprague Dawley rats (Charles River, Portage, Mich.). One normal set was used as a control, and one set was inoculated with Walker-256 carcinosarcoma cells (5×10^6 cells) in 0.2 ml saline in the right hindlimb. The Walker carcinoma cell line was provided by Dr. James Varani of the Department of Pathology at the University of Michigan, and is an accepted cell line representative of effect in humans. See, e.g. Tayck et al., “Influence of the Walker 256 Carcinosarcoma on Muscle, Tumor, and Whole-Body Protein Synthesis and Growth Rate in the Cancer-Bearing Rat, Cancer Res. 46:5649-54 (1986).
The animals were used 6-8 days later when the tumor weight averaged 10 g. The radiolabelled compounds were dissolved in absolute ethanol (50-500 μl) and Tween-20 (0.1 ml/mg of compound) was added to the solution. Ethanol was removed by evaporation under a stream of nitrogen. Physiological saline or sterile water was added, to give a 2-3% Tween-20 solution which was subsequently mixed by vortex. The solubilized radiolabelled compounds (5-10 μCi, 0.3 ml) were administered intravenously via the tail vein to tumor bearing rats, and the animals were sacrificed by exsanguination while under ether anesthesia at the various time points. Blood samples were collected through cardiac puncture and selected tissues (liver, kidney, etc.) were removed, trimmed, blotted to remove excess blood and weighed. Large organs were thoroughly minced with scissors to obtain random representative tissue samples.
For the biodistribution experiments with 12-(p-iodophenyl)dodecyl phosphocholine, weighed tissue samples were counted with a well scintillation counter (85% counting efficiency). The concentration of radioactivity in each tissue was expressed as a percentage of administered dose per gram of tissue.
Tissue distribution was assessed at various times following administration of the radioiodinated chain length isomers. The results are expressed as the mean % administered dose per gram±SEM (% Dose/g±SEM).

[2] = test system: Dunning R3327 prostate tumor-bearing animals; test: Gamma camera scintigraphy studies with Dunning R3327 prostate tumor; details: >40 μCi injected, 125I window, static fifteen-minute images
Description: Comparative in vivo scintigaphic studies were also conducted using the C-12 analog 12-(p-iodophenyl)dodecyl phosphocholine and the C-18 analogs 18-(p-iodophenyl)octadecyl phosphocholine (Compound XVI) and 1-O-[18-(p-iodophenyl)octadecyl]-1,3-propanediol-3-phosphocholine (Compound XIV) utilized in Example 7. The imaging studies were performed on Dunning R3327 prostate tumor-bearing animals injected with >40 μCi of the radioiodinated phospholipid ether formulations described above. The anesthetized animals were imaged at selected times after injection on a gamma camera set to the ^125I window and outfitted with a low energy collimator. Static fifteen-minute images were obtained for each animal at the specified time. The results are illustrated in FIGS. 8A-8C.

[3] = test system: rats bearing Dunning (MATLyLu) prostate tumors; test: Biodistribution studies with Dunning prostate tumor; details: i.v., Dunning MAT-LyLu prostate tumor-bearing rats, mean ± SEM
Description: The three radiolabelled compounds illustrated in FIGS. 7A-7C, including the improved C-18 analogs 18-(p-iodophenyl)octadecyl phosphocholine (Compound XVI—FIG. 7B) and 1-O-[18-(p-iodophenyl)octadecyl]-1,3-propanediol-3-phosphocholine (Compound XIV—FIG. 7C) described in Examples 2 and 3, respectively, were prepared and administered to two sets of male Copenhagen rats (Harlan Sprague-Dawley, Indianapolis, Ind.). One group of normal animals was used as a control, and another group was inoculated with Dunning prostate tumor cells (1×10^6 MAT-LyLu cells) in 0.2 ml saline in the right hindlimb. The MAT-LyLu subline of the Dunning (R-3327) adenocarcinoma prostate tumor was provided by Dr. Ken Pienta of the Department of Urology at the University of Michigan, and is an accepted cell line representative of effect in humans. See, e.g., Pienta et al., “Inhibition of Spontaneous Metastasis in a Rat Prostrate Cancer Model by Oral Administration of Modified Citrus Pectin, J. Natl. Cancer Inst. 87:348-53 (1995).
The animals were maintained with free access to food and water until day 8-10. The radioiodinated phospholipid ether analog formulated in 2% Tween 20—sterile water (5-10 μCi, 0.3-0.4 ml, described above in Example 6) was administered intravenously into the tail vein of the tumor-bearing animals under metofane anesthesia. The animals were euthanized at selected time points after injection (n=3 per time point) and samples of blood, plasma and a variety of tissues including tumor and prostate are collected and analyzed for radioiodine content. Biodistribution values are calculated as the mean of the individual % administered dose per gram of tissue and % dose per organ values.

12-(p-iodophenyl)dodecyl phosphocholine [C-12 Analog]
mean % administered dose per gram, Adrenal ([1]; 24 hr): 0.33 ± 0.01 % Dose/g | mean % administered dose per gram, Adrenal ([1]; 48 hr): 0.29 ± 0.01 % Dose/g | mean % administered dose per gram, Blood ([1]; Blood, 24 hr): 0.27 ± 0.04 % Dose/g | mean % administered dose per gram, Blood ([1]; Blood, 48 hr): 0.27 ± 0.03 % Dose/g | blood levels ([1]; Blood, 120 hours): 0.22±0.03 % Dose/g | mean % administered dose per gram, Duodenum ([1]; 24 hr): 1.35 ± 0.13 % Dose/g | mean % administered dose per gram, Duodenum ([1]; 48 hr): 0.77 ± 0.06 % Dose/g | mean % administered dose per gram, Kidney ([1]; 24 hr): 4.10 ± 0.44 % Dose/g | mean % administered dose per gram, Kidney ([1]; 48 hr): 3.44 ± 0.08 % Dose/g | mean % administered dose per gram, Liver ([1]; 24 hr): 1.62 ± 0.17 % Dose/g | mean % administered dose per gram, Liver ([1]; 48 hr): 1.37 ± 0.01 % Dose/g | mean % administered dose per gram, Lung ([1]; 24 hr): 1.06 ± 0.04 % Dose/g | mean % administered dose per gram, Lung ([1]; 48 hr): 0.53 ± 0.01 % Dose/g | mean % administered dose per gram, Plasma ([1]; 24 hr): 0.39 ± 0.05 % Dose/g | mean % administered dose per gram, Plasma ([1]; 48 hr): 0.39 ± 0.05 % Dose/g | mean % administered dose per gram, Tumor ([1]; 24 hr): 2.99 ± 0.34 % Dose/g | mean % administered dose per gram, Tumor ([1]; 48 hr): 1.84 ± 0.09 % Dose/g | tumor localization in gamma camera scintigraphy images [2]: tumor was barely visible | mean % administered dose per gram, Adrenal ([3]; 24 hr): 0.29 ± 0.01 % Dose/g | mean % administered dose per gram, Adrenal ([3]; 48 hr): 0.23 ± 0.01 % Dose/g | mean % administered dose per gram, Blood ([3]; 24 hr): 0.23 ± 0.02 % Dose/g | mean % administered dose per gram, Blood ([3]; 48 hr): 0.22 ± 0.01 % Dose/g | mean % administered dose per gram, Kidney ([3]; 24 hr): 4.45 ± 0.27 % Dose/g | mean % administered dose per gram, Kidney ([3]; 48 hr): 3.38 ± 0.43 % Dose/g | mean % administered dose per gram, Liver ([3]; 24 hr): 1.27 ± 0.02 % Dose/g | mean % administered dose per gram, Liver ([3]; 48 hr): 1.05 ± 0.03 % Dose/g | mean % administered dose per gram, Lung ([3]; 24 hr): 0.48 ± 0.03 % Dose/g | mean % administered dose per gram, Lung ([3]; 48 hr): 0.33 ± 0.02 % Dose/g | mean % administered dose per gram, Plasma ([3]; 24 hr): 0.32 ± 0.03 % Dose/g | mean % administered dose per gram, Plasma ([3]; 48 hr): 0.32 ± 0.01 % Dose/g | mean % administered dose per gram, Tumor ([3]; 24 hr): 0.37 ± 0.03 % Dose/g | mean % administered dose per gram, Tumor ([3]; 48 hr): 0.30 ± 0.01 % Dose/g
